In the oligonucleotide strings, read from the 5' end, every base follows the letter of its sugar. An asterisk marks phosphorothioate; unmarked linkages are phosphodiester. Other units and linkages are bracketed, terminal groups are in braces. A string of capitals states the bases alone. d = 2'-deoxy (DNA)
What was measured:
recombinant S protein = test system: recombinant S protein; design: species or system SARS-CoV-2; conditions: in vivo
splenocytes = assay: Antigen-dependent T helper responses: cytokine ELISA of RBD-stimulated splenocytes from immunized mice; assay type: in vivo, mouse; conditions: splenocytes of intramuscularly immunized mice stimulated with RBD for 96 h (FIG. 5A-5C)
Mouse BMDCs [1] = assay: Surface marker expression on BMDCs by flow cytometry; assay type: cell-based; conditions: CpG-2722 5 μg/ml, c-di-AM(PS)2 1 μg/ml, 24 h, CD11c+ cells (FIG. 6)
Mouse BMDCs [2] = assay: Cytokine expression in BMDCs by RT-qPCR; assay type: cell-based; conditions: 4 h (FIG. 7); for expression of cytokine genes (TNF-α, IL-1β, IL-6, IL-12A, IL-12B, IL-23A, IFN-β, IFN-γ): CpG-2722 5 μg/ml, c-di-AM(PS)2 1 μg/ml
Mouse splenocytes = assay: Cytokine expression in splenocytes by RT-qPCR; assay type: cell-based; conditions: 4 h (FIG. 8)
[3] = test system: mouse embryonic fibroblasts (MEFs); assay: Cytokine expression in MEFs by RT-qPCR; assay type: cell-based; conditions: CpG-2722 5 μg/ml, c-di-AM(PS)2 1 μg/ml, 4 h (FIG. 10)
[4] = test system: NHRI-HN1 syngeneic orthotopic cancer animal model; design: species or system mice; conditions: mouse, in vivo
Mouse PBMCs = assay: Cytokine expression in PBMCs by RT-qPCR; assay type: cell-based; conditions: CpG-2722 5 μg/ml, c-di-AM(PS)2 1 μg/ml, 4 h (FIG. 9)
[5] = test system: influenza VLP (viral like particle); assay: Antibody titers after intranasal influenza VLP/adjuvant vaccines in BALB/c mice; conditions: intranasal days 0, 15, 29, after the 3rd vaccination (day 42) (FIG. 15B)

Row | Compound | anti-S protein IgG titer (recombinant S protein) | serum anti-S IgA production (recombinant S protein) | antigen-dependent Th responses (IFN-γ for Th1, IL-17A for Th17, IL-4, IL-5, IL-13 for Th2) (splenocytes) | surface expression of CCR7 (Mouse BMDCs [1]) | surface expression of CD80 (Mouse BMDCs [1]) | surface expression of CD86 (Mouse BMDCs [1]) | expression of IFN-α (Mouse BMDCs [2]) | expression of IL-2 (Mouse BMDCs [2]) | expression of cytokine genes (TNF-α, IL-1β, IL-6, IL-12A, IL-12B, IL-23A, IFN-β, IFN-γ) (Mouse BMDCs [2]) | expression of IFN-β, IL-4, IL-5, and IL-13 (Mouse splenocytes) | expression of IL-12A and IL-12B (Mouse splenocytes) | cytokine gene expression (TNF-α, IL-1β, IL-6, IL-12B, IL-23A, IFN-β) [3] | tumor growth suppression [4] | surface expression of CD40 (Mouse BMDCs [1]) | expression of IL-1β (Mouse BMDCs [2]) | expression of TNF-α, IL-1β, IL-6, IL-12A, IL-12B, IL-23A, IFN-β, IFN-γ (Mouse splenocytes; CpG-2722 5 μg/ml, c-di-AM(PS)2 1 μg/ml) | mRNA expression of TNF-α, IL-1β, IL-6, IL-12A, IL-12B, IL-23A, IFN-β, IFN-γ (Mouse PBMCs) | anti-VLP IgG titer [5]
1 | Nc1ncnc2c1ncn2[C@@H]1O[C@@H]2COP(O)(=S)O[C@@H]3C(O)[C@@H](COP(O)(=S)O[C@H]2[C@H]1O)O[C@H]3n1cnc2c(N)ncnc21 (some centres unmarked) [2′3′-c-di-AM(PS)2] | became apparent | did not elicit the production of serum anti-S IgA | induced an antigen-dependent Th2 response | none of these two agonists activated expression of the CCR7 | induced the expression of CD80 and CD86 | induced the expression of CD80 and CD86 | induced the expression of IFN-α | not induced by either of these two agonists alone | induced the expressions of TNF-α, IL-1β, IL-6, IL-12A, IL-12B, IL-23A, IFN-β, and IFN-γ genes | induced the expression of IFN-β, IL-4, IL-5, and IL-13 more potently | not induced | induced the gene expression of TNF-α, IL-1β, IL-6, IL-12B, IL-23A, and IFN-β |  |  |  |  |  | 
2 | Nc1ncnc2c1ncn2[C@@H]1O[C@@H]2COP(=O)(O)O[C@@H]3[C@H](O)[C@@H](COP(=O)(O)O[C@H]2[C@H]1O)O[C@H]3n1cnc2c(N)ncnc21 [2′3′-c-di-AMP] |  |  |  |  |  |  |  |  |  |  |  |  | some level of tumor growth suppression |  |  |  |  | 
3 | CpG-2722 (DNA dG*dT*dT*dG*dT*dC*dG*dT*dT*dT*dT*dT*dT*dG*dT*dC*dG*dT*dT) | became apparent | did not elicit the production of serum anti-S IgA | preferentially induced antigen-dependent Th1 and Th17 responses | none of these two agonists activated expression of the CCR7 |  |  |  | not induced by either of these two agonists alone | induced the expressions of TNF-α, IL-1β, IL-6, IL-12A, IL-12B, IL-23A, IFN-β, and IFN-γ genes |  |  | not observed | some level of tumor growth suppression | induced expression of CD40 | strongly induced | more potent than c-di-AM(PS)2 | higher induction by CpG-2722 treatment alone than that induced by the c-di-AM(PS)2 treatment alone | does not further increase the IgG titer

Source: US20240115681A1 (priority 2022, published 2024)
